US10233209B2, “Inhibitors of the farnesoid x receptor and uses in medicine” (The United States of America, as represented by the …, priority 2013, dated 2019)
Entries after “also recorded” stand apart in the source; their conditions may differ.

How the values were obtained:
human FXR [1] = target: T1, human FXR (Homo sapiens, UniProt Q96RI1); test: human FXR competition assay (GAL4-FXR chimeric receptor luciferase, HEK293T); assay type: cell-based; details: in the presence of GW4064
T1 construct: expressed in transfected cells; host or cells: HEK293T
T1 sequence (Q96RI1 262-486 limits assumed): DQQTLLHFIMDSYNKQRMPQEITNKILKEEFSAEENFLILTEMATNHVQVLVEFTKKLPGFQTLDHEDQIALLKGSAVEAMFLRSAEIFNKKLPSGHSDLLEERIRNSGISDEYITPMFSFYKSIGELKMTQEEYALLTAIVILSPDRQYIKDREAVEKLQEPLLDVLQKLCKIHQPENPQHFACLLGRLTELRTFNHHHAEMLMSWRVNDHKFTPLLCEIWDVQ
Method: Luciferase detection was conducted using the Dual Luciferase Reporter Assay kit (Promega Corp., Madison, Wis.) and a Tecan GeniosPro luminescent plate reader (Research Triangle Park, N.C.).
Luciferase detection was conducted using the Dual Luciferase Reporter Assay kit (Promega; Madison, Wis.) and a Tecan GeniosPro™ luminescent plate reader (Research Triangle Park, N.C.).

FXR [2] = target: T2, FXR (Mus musculus, UniProt Q60641); test: PGL4-Shp-TK luciferase assay in primary hepatocytes; assay type: cell-based; details: primary hepatocytes from Fxr^+/+ mice; 100 μM TCA
T2 construct: Primary hepatocytes from Fxr^+/+ and Fxr^−/− mice were transfected with PGL4-Shp-TK firefly luciferase construct and the control plasmid phRL-SV40; endogenous in cells; host or cells: primary mouse hepatocytes (Fxr+/+; Fxr-/- as negative control)
T2 sequence (Q60641 1-488): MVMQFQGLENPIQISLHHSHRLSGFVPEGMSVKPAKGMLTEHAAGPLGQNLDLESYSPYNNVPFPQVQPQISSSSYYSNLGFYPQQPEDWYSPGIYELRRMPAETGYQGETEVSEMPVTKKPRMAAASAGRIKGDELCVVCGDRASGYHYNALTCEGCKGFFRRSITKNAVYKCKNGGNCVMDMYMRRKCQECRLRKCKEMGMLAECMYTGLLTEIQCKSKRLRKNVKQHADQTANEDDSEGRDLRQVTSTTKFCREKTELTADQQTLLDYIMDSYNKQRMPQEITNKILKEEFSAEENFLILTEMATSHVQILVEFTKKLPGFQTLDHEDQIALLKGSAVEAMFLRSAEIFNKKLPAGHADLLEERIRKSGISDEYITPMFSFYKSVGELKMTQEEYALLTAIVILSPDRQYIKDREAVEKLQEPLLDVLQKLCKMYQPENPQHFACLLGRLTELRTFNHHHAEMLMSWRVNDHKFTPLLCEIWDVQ
Excerpt: (§1) The PGL4-Shp-TK firefly luciferase construct and human Fxr expression plasmid were provided by Grace L. Guo of Rutgers University. The human Asbt expression plasmid was provided by Paul A. Dawson of Wake Forest University School of Medicine. The plasmids were transfected into cells using X-[…]™ HP DNA Transfection Reagent (Roche). The cells were lysed, and luciferase activities measured with a DUAL-LUCIFERASE™ assay kit (Promega). Firefly luciferase activity was normalized to Renilla luciferase activity.
Primary hepatocytes from Fxr^+/+ and Fxr^−/− mice were transfected with PGL4-Shp-TK firefly luciferase construct and the control plasmid phRL-SV40. After 24 h, the cells were treated with 100 μM taurocholic acid (TCA), TβMCA, or TβMCA with TCA. The cells were lysed, and luciferase activities measured as describe herein. The results are depicted in FIG. 1.

human FXR [3] = target: T3, human FXR (Homo sapiens, UniProt Q96RI1); test: PGL4-Shp-TK luciferase assay in Caco-2 cells transfected with human FXR and human ASBT; assay type: cell-based; details: 100 μM TCA
T3 construct: expressed in transfected cells; host or cells: Caco-2
T3 sequence (Q96RI1 1-486): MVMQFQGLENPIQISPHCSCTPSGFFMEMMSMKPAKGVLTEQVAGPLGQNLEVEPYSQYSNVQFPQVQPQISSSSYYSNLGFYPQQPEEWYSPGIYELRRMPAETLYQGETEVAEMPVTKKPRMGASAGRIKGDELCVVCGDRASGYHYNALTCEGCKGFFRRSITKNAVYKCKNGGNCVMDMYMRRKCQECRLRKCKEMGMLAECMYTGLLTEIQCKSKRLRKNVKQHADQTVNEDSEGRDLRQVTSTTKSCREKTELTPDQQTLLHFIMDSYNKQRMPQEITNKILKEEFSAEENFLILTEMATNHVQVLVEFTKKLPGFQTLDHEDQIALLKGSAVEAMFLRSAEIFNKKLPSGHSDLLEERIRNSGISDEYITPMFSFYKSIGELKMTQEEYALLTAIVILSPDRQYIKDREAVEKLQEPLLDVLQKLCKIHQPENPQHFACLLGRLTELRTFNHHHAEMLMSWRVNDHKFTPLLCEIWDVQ
Excerpt: as §1
Caco-2 cells were transfected with PGL4-Shp-TK firefly luciferase construct, the control plasmid phRL-SV40, and human FXR and human ASBT expression plasmids. After 24 h, the cells were treated with 100 μM TCA, TβMCA, or TβMCA with […] 100 μM TCA. The cells were lysed, and luciferase activities measured as describe herein. The results are depicted in FIG. 2.

FXR [4] = target: T2, FXR; test: FXR signaling in the ileum (Shp, Fgf15 mRNA); assay type: in vivo; details: mice treated with antibiotic on HFD for three days; TCA and TβMCA 400 mg/kg each, oral
Excerpt: High-fat diet (HFD) (60% kcal consisting of fat) was purchased from Bioserv. […] Fxr^fl/fl and Fxr^ΔIE (Kim et al., J. Lipid Res. 48:2664-2672, 2007) mice were backcrossed with C57BL/6N mice for over 10 generations. For the antibiotic (the combination of bacitracin, neomycin, and streptomycin) study, male C57BL/6N mice from 6 weeks of age were fed a high-fat diet (“HFD) and administered 0.1% (w/v) of each compound (the combination of bacitracin, neomycin, and streptomycin) in the drinking water. […] For TβMCA in vivo, male C57BL/6N mice from 6 weeks of age were fed a HFD and treated with the antibiotics (0.1% of each compound of bacitracin, neomycin, and streptomycin combination) for 3 days. […] Cumulative food intake and TEEbal were measured for 1 week in vehicle and Gly-MCA-treated mice from 6 to 7 weeks of HFD. TEEbal was measured as previously described (Ravussin et al., Int. J. Obesity 37:399-403, 2013).
The mucosa of intestine was gently scraped and liver was taken and both were flash frozen in liquid nitrogen and stored at −80° C. until RNA was prepared. […] Measured mRNA levels were normalized to those of 18S ribosomal RNA and expressed as fold change relative to those of control group.

Row | Compound | FXR activity induced by synthetic agonist GW4064 (luciferase, normalized to Renilla) (human FXR [1]) | FXR activation by TCA (luciferase activity) (FXR [2]) | FXR activation by TCA (luciferase activity) (human FXR [3]) | Shp and Fgf15 induction by the FXR agonist TCA in the ileum (FXR [4])
1 | C[C@H](CCC(=O)NCCS(=O)(=O)O)[C@H]1CC[C@H]2[C@@H]3[C@H](O)[C@@H](O)[C@@H]4C[C@H](O)CC[C@]4(C)[C@H]3CC[C@]12C [TαMCA] | inhibited FXR | – | – | –
2 | C[C@H](CCC(=O)NCCS(=O)(=O)O)[C@H]1CC[C@H]2[C@@H]3[C@@H](O)[C@@H](O)[C@@H]4C[C@H](O)CC[C@]4(C)[C@H]3CC[C@]12C [TβMCA, tauro-β-muricholic acid] | inhibited FXR | antagonizes farnesoid X receptor (FXR) activation; also recorded: antagonized FXR activation by TCA | antagonizes FXR activation; also recorded: antagonized FXR activation by TCA | significantly blunted
